The subject of test [1] is Aspergillus nidulans. The test can be described thus: Sporulation assay, paper disc diffusion on PDA seeded with spores. Type of test: cell-based, Aspergillus nidulans strain 003 (ATCC 36321). A general note: Agar diffusion results depend on both activity and mobility in agar.
The subject of test [2] is Aspergillus nidulans. The experiment in a line: High-throughput screen for antisporulant activity, direct application with a replicator. In kind it is cell-based. The conditions noted are these: direct application to the medium using a replicator; 2 days at 37° C. The source says:
For high-throughput screens, 245mm square bioassay dishes were poured and the medium containing the spore inoculum was allowed to solidify prior to application of test samples. Test samples, representing a broad spectrum of diverse chemical structures, were applied to the surface of the agar medium either by hand, using a replicator, or by robotic application. Each screen included a positive control treatment (e.g., 5 ∝g of one of the active benzophenones described elsewhere herein) that provided a positive response. Plates were incubated for 2 days at 37° C. Positives were initially identified by the presence of a discolored zone around the test sample. The positives were confirmed by retest followed by observation under a low power microscope (×20 magnification).
7000 compounds with diverse structures have been tested using the such a highthroughput screen. The compounds were tested by direct application to the medium using a replicator.

For test [3], the system named is Wheat Powdery Mildew (Blumeria [Erysiphe] graminis f.sp. tritici). The conditions noted are these: in vivo. Also: key: '+++' =high control; '++' =moderate control; '+' =low control; '0'=no control.
In test [4] the test system is Apple Scab (Venturia inaequalis). The test can be described thus: Protectant foliar spray test against apple scab. Also: key: '+++' =high control; '++' =moderate control; '+' =low control; '0'=no control. Type of test: in vivo.
The subject of test [5] is Rice Blast (Magnaporthe grisea). In kind it is in vivo. Particulars: foliar spray before inoculation, vs untreated inoculated controls.
Test [6] deals with Leptosphaeria (Septoria) nodorum. The test can be described thus: Protectant foliar spray test against wheat L. nodorum blotch. Also: key: '+++' =high control; '++' =moderate control; '+' =low control; '0'=no control. Type of test: in vivo.
Setting [7] is: apple seedlings, foliar spray before inoculation, vs untreated inoculated controls.
The mark [8] stands for this setting: wheat, foliar spray before inoculation, vs untreated inoculated controls.

As to `CC1=C(C(=O)Nc2ccccc2)SCCO1` [Carboxin], in the test with Aspergillus nidulans [1], the Active entry is listed as “No”, the Inactive result is reported as “Yes” and the Moderately active result is “No”.

Turning to `CC(C)(C)CC(C)(C)c1ccc(C(=O)O)cc1` [A, 4-(1,1,3,3-tetramethylbutyl)benzoic acid], the anti-sporulation activity entry in the test with Aspergillus nidulans [2] is “tested positive”.

`C[C@@H]([C@H](N)C(=O)N[C@H](C(=O)O)[C@H]1O[C@@H](n2ccc(=O)[nH]c2=O)[C@H](O)[C@@H]1O)[C@H](O)c1ccc(O)cn1` [Nikkomycin]: in the test with Aspergillus nidulans [1], the Active entry is on record as “No”, the Inactive result is on record as “Yes” and the Moderately active entry was “No”.

On to `COc1cc(C)c(C(=O)c2c(OC)ccc(C(F)(F)F)c2C)c(OC)c1OC` [T, [6-methoxy-2-methyl-3-(trifluoromethyl)phenyl](2,3,4-trimethoxy-6-methylphenyl)methanone], for which the “Level of Plant Disease Control, Wheat Powdery Mildew” value (shortened to “Level … Wheat Powdery Mildew”) in test [3] was “+++”. For the same compound, the “Level of Plant Disease Control, Apple Scab” value (“Level … Apple Scab” below) in test [4] (setting [7]) is listed as 0. Also, in test [5], the “Level of Plant Disease Control, Rice Blast” value (“Level … Rice Blast” below) is 0. Moreover, the “Level of Plant Disease Control, Wheat L. nodorum” value (“Level … Wheat L. nodorum” below) in test [6] (setting [8]) was found to be 0.

Take `COc1cc(C)c(C(=O)c2c(OC)ccc(Br)c2C)c(OC)c1OC` [M, (3-bromo-6-methoxy-2-methylphenyl)(2,3,4-trimethoxy-6-methylphenyl)methanone]: the “Level … Wheat Powdery Mildew” value in test [3] is given as “+++”. The “Level … Apple Scab” value in test [4] (in vivo) is given as “+++”. Moreover, the “Level … Rice Blast” value in test [5] amounted to 0. Further, the “Level … Wheat L. nodorum” value in test [6] (in vivo) is 0.

In the case of `CCCC(C)Oc1cc(C)c(C(=O)c2c(Cl)cccc2Cl)cc1OC` (stereo not drawn) [U, (2,6-dichlorophenyl)[5-methoxy-2-methyl-4-(1-methylbutoxy)phenyl]methanone], the “Level … Wheat Powdery Mildew” value in test [3] was “++”. In addition, the “Level … Apple Scab” value in test [4] (setting [7]) is listed as 0. The “Level … Rice Blast” value in test [5] was “++”. In addition, the “Level … Wheat L. nodorum” value in test [6] (setting [8]) is “+++”.

As to `CCCOc1c(OC)cc(C)c(C(=O)c2c(OC)ccc(Br)c2C)c1OCc1ccccc1` [Y, (3-bromo-6-methoxy-2-methylphenyl)[4-methoxy-6-methyl-2-(phenylmethoxy)-3-propoxyphenyl]methanone], the “Level … Wheat Powdery Mildew” value in test [3] was “+++”. Besides, the “Level … Apple Scab” value in test [4] (setting [7]) turned out to be 0. The “Level … Rice Blast” value in test [5] was determined as 0. The “Level … Wheat L. nodorum” value in test [6] (setting [8]) is listed as 0.

Regarding `COc1cc(C)c(C(=O)c2c(O)ccc(Cl)c2C)c(OC)c1OC` [Compound N, (3-chloro-6-hydroxy-2-methylphenyl)(2,3,4-trimethoxy-6-methylphenyl)methanone], the “Level … Wheat Powdery Mildew” value in test [3] is “+++”. The “Level … Apple Scab” value in test [4] (setting [7]) is on record as 0. The “Level … Rice Blast” value in test [5] was “++”. The “Level … Wheat L. nodorum” value in test [6] (setting [8]) was 0.

The values are drawn from US20020155518A1, “Method of detecting compounds that control fungal diseases via effects on sporulation” (priority 2000, published 2002).
